The results in this text go back to PubChem BioAssay AID1259411 (Chemical Carcinogenesis Research Information System (CCRIS), 2018).

The source made the active and inactive calls. How the calls were made is not given here.

The data set has as its system rodent carcinogenicity bioassays, tumor incidence. As to the kind of experiment: CCRIS carcinogenicity studies. To be noted: Dose: 0, Dose: 0. Put shortly:
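NCI-built, expert-reviewed records of carcinogenicity and related test outcomes (mutagenicity, tumor promotion/inhibition) compiled from published and report sources, historical span 1985-2011, not updated.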

Turning to `O=C1OC(=O)c2ccccc21`, the carcinogen call is, setting by setting: (Species: MOUSE, Strain/Sex: B6C3F1/FEMALE, Route: ORAL, 12019, 24038 PPM IN DIET, TWA (STUDY DURATION: 104 WK), 12019, 24038 PPM IN DIET, TWA (STUDY DURATION: 104 WK)) “inactive; negative”; (Species: MOUSE, Strain/Sex: B6C3F1/MALE, Route: ORAL, 16346, 32692 PPM IN DIET, TWA (STUDY DURATION: 104 WK), 16346, 32692 PPM IN DIET, TWA (STUDY DURATION: 104 WK)) “inactive; negative”; (Species: RAT, Strain/Sex: F344/FEMALE, Route: ORAL, 7500, 15000 PPM IN DIET FOR 105 WK, 7500, 15000 PPM IN DIET FOR 105 WK) “inactive; negative”; (Species: RAT, Strain/Sex: F344/MALE, Route: ORAL, 7500, 15000 PPM IN DIET FOR 105 WK, 7500, 15000 PPM IN DIET FOR 105 WK) “inactive; negative”.
As for `CC(C)OC(=O)Nc1cccc(Cl)c1`, the carcinogen call is, setting by setting: (Species: Mouse, Strain/Sex: CD-1/Female (50/group), Route: Oral, 100, 500, 1,000 mg/kg/day in diet for 18 mo, 100, 500, 1,000 mg/kg/day in diet for 18 mo) “inactive; negative (study details not given in source; purity 96.2%)”; (Species: Mouse, Strain/Sex: CD-1/Male (50/group), Route: Oral, 100, 500, 1,000 mg/kg/day in diet for 18 mo, 100, 500, 1,000 mg/kg/day in diet for 18 mo) “inactive; negative (study details not given in source; purity 96.2%)”; (Species: Rat, Strain/Sex: Sprague-Dawley/Female (50/group), Route: Oral, 30, 100, 500, 1,000 mg/kg/day in diet for 24 mo, 30, 100, 500, 1,000 mg/kg/day in diet for 24 mo) “inactive; negative (study details not given in source; purity 96.2%)”; (Species: Rat, Strain/Sex: Sprague-Dawley/Male (50/group), Route: Oral, 30, 100, 500, 1,000 mg/kg/day in diet for 24 mo, 30, 100, 500, 1,000 mg/kg/day in diet for 24 mo, Tumor Site: Type of Lesion: Testis: Interstitial cell tumors (1, 4, 2, 4, 9; Significant at highest dose)) “active; positive (study details not given in source; purity 96.2%)”.
As for `NCCCCCCCCCCC(=O)O`, the carcinogen call (Species: MOUSE, Strain/Sex: B6C3F1/FEMALE, Route: ORAL, 7500, 15000 PPM IN DIET FOR 103 WK (STUDY DURATION: 103 WK), 7500, 15000 PPM IN DIET FOR 103 WK (STUDY DURATION: 103 WK)) is “inactive; negative”; the carcinogen call (Species: MOUSE, Strain/Sex: B6C3F1/MALE, Route: ORAL, 7500, 15000 PPM IN DIET FOR 103 WK (STUDY DURATION: 103 WK), 7500, 15000 PPM IN DIET FOR 103 WK (STUDY DURATION: 103 WK), Tumor Site: Type of Lesion: HEMATOPOIETIC SYSTEM: MALIGNANT LYMPHOMA) is “equivocal”; the carcinogen call (Species: RAT, Strain/Sex: F344/FEMALE, Route: ORAL, 7500, 15000 PPM IN DIET FOR 104 WK (STUDY DURATION: 104 WK), 7500, 15000 PPM IN DIET FOR 104 WK (STUDY DURATION: 104 WK)) is “inactive; negative”; the carcinogen call (Species: RAT, Strain/Sex: F344/MALE, Route: ORAL, 7500, 15000 PPM IN DIET FOR 104 WK (STUDY DURATION: 104 WK), 7500, 15000 PPM IN DIET FOR 104 WK (STUDY DURATION: 104 WK), Tumor Site: Type of Lesion: LIVER: NEOPLASTIC NODULE, URINARY BLADDER: TRANSITIONAL CELL CARCINOMA) is “active; positive”.
`Nc1ccc(-c2ccccc2)cc1O`: the carcinogen call is, setting by setting: (Species: MOUSE, Strain/Sex: SWISS/FEMALE, Route: SUBCUTANEOUS, 200 UG IN 0.02 ML 3% AQUEOUS GELATIN 1/D FOR 3 D (STUDY DURATION: 52 WK)) “inactive; negative”; (Species: MOUSE, Strain/Sex: SWISS/MALE, Route: SUBCUTANEOUS, 200 UG IN 0.02 ML 3% AQUEOUS GELATIN 1/D FOR 3 D (STUDY DURATION: 52 WK), Tumor Site: Type of Lesion: LIVER: HEPATOMA) “active; positive”.
Regarding `CCN(C)N=O`, the carcinogen call reads like this: (Species: HAMSTER, Strain/Sex: SYRIAN/MALE, Route: GAVAGE, 1.8 MG/KG 1/WK FOR 23-30 WK (TOTAL DOSE: 0; 0.53 MMOL) (STUDY DURATION: LIFETIME), 1.8 MG/KG 1/WK FOR 23-30 WK (TOTAL DOSE: 0; 0.53 MMOL) (STUDY DURATION: LIFETIME), Tumor Site: Type of Lesion: LIVER: HEPATOCELLULAR CARCINOMA, HEPATOCELLULAR ADENOMA, CHOLANGIOCARCINOMA, CHOLANGIOMA, HEMANGIOSARCOMA, NASAL MUCOSA:) “active; positive”; (Species: RAT, Strain/Sex: F344/FEMALE, Route: GAVAGE, 4.6 MG/WK FOR A TOTAL DOSE OF 1.4 MMOL (STUDY DURATION: 40 WK), Tumor Site: Type of Lesion: LIVER: TUMOR, LUNG: TUMOR) “active; positive”; (Species: RAT, Strain/Sex: F344/FEMALE, Route: INTRAVESICULAR, 2.3 MG IN 0.2 ML ETHANOL: DEIONIZED WATER (1:3) 2/WK FOR 30 WK (TOTAL DOSE 1.6 MMOL) (STUDY DURATION: LIFESPAN), Tumor Site: Type of Lesion: LIVER: HEMANGIOSARCOMA, LUNG: TUMOR, KIDNEY: TUMOR, Tumor Site: Type of Lesion: LIVER: HEMANGIOSARCOMA, LUNG: TUMOR, KIDNEY: TUMOR) “active; positive”; (Species: RAT, Strain/Sex: F344/MALE, Route: GAVAGE, 4.6 MG/WK FOR A TOTAL DOSE OF 1.6 MMOL (STUDY DURATION: 60 WK), Tumor Site: Type of Lesion: LIVER: TUMOR, LUNG: TUMOR, NASAL MUCOSA: TUMOR, Tumor Site: Type of Lesion: LIVER: TUMOR, LUNG: TUMOR, NASAL MUCOSA: TUMOR) “active; positive”.
On to `NC(=O)c1cnccn1`, for which the carcinogen call (Species: MOUSE, Strain/Sex: B6C3F1/MALE, Route: ORAL, 5000, 10000 PPM IN DIET, 5000, 10000 PPM IN DIET) is “inactive; negative”; the carcinogen call (Species: RAT, Strain/Sex: F344/FEMALE, Route: ORAL, 5000, 10000 PPM IN DIET, 5000, 10000 PPM IN DIET) is “inactive; negative”; the carcinogen call (Species: RAT, Strain/Sex: F344/MALE, Route: ORAL, 5000, 10000 PPM IN DIET, 5000, 10000 PPM IN DIET) was “inactive; negative”.
As to `O[C@@H]1C=Cc2c(cc3ccc4cccc5ccc2c3c45)[C@H]1O`, for the setting “Species: FISH, Strain/Sex: RAINBOW TROUT/MALE,FEMALE, Route: INJECTION, 0.5, 2, 5 UG INJECTED INTO NEWLY HATCHED SAC-FRY (STUDY DURATION: 9 MO), 0.5, 2, 5 UG INJECTED INTO NEWLY HATCHED SAC-FRY (STUDY DURATION: 9 MO), Tumor Site: Type of Lesion: LIVER: TUMOR”, the carcinogen call was “active; positive”.
Take `C=COc1ccc([N+](=O)[O-])cc1`: the carcinogen call (Species: MOUSE, Strain/Sex: B6C3F1/MALE, Route: INTRAPERITONEAL, 60, 300 NMOL/G BW IN 10 µL TRIOCTANOIN ONCE (STUDY DURATION: 10 MO), 60, 300 NMOL/G BW IN 10 µL TRIOCTANOIN ONCE (STUDY DURATION: 10 MO), Tumor Site: Type of Lesion: LIVER: HEPATOMA) was “active; positive”.
`Cc1c([N+](=O)[O-])c2ccccc2c2ccc3ccccc3c12`: the carcinogen call runs as follows: (Species: MOUSE, Strain/Sex: SWISS/FEMALE, Route: INTRAPERITONEAL, 100 NMOL (TOTAL DOSE) ADMINISTERED 1/7, 2/7 AND 4/7 ON DAY 1, 8 AND 15 RESPECTIVELY (STUDY DURATION: 32 WK)) “inactive; negative”; (Species: MOUSE, Strain/Sex: SWISS/MALE, Route: INTRAPERITONEAL, 100 NMOL (TOTAL DOSE) ADMINISTERED 1/7, 2/7 AND 4/7 ON DAY 1, 8 AND 15 RESPECTIVELY (STUDY DURATION: 32 WK), Tumor Site: Type of Lesion: LIVER: TUMOR) “active; positive”.
